Test results reported in DBAASP.
≈ marks a conversion by molar mass, not a printed value.

Experiments:
Assay in all cases: ≥ marks a high value that may be exact or a test limit, other limits are often not marked, values filed in µg/mL are converted to µM
[1] = tested on: Porphyromonas gingivalis W50
[2] = tested on: Escherichia coli DH5alpha
[3] = tested on: Pseudomonas aeruginosa PAO1
[4] = tested on: Escherichia coli K12 MG1655
[5] = tested on: Listeria monocytogenes KCTC 19111
[6] = tested on: Escherichia coli ATCC 25922
[7] = tested on: Pseudomonas aeruginosa ATCC 15692
[8] = tested on: Staphylococcus epidermidis KCTC 1917
[9] = tested on: Salmonella typhimurium KCTC 1926
[10] = tested on: Staphylococcus aureus ATCC 25923
Escherichia coli INV-a = tested on: Escherichia coli INV-a
[11] = tested on: Lactococcus lactis MG1363
[12] = tested on: Escherichia coli O157:H7 CICC 21530
[13] = tested on: Salmonella enterica subsp. enterica serovar Pullorum C79-13
[14] = tested on: Lacticaseibacillus rhamnosus 8014
[15] = tested on: Salmonella enterica subsp. enterica serovar Typhimurium ATCC 14028
[16] = tested on: Lacticaseibacillus rhamnosus 1.0911
[17] = tested on: Streptococcus agalactiae BNCC 185941
[18] = tested on: Salmonella enterica subsp. enterica serovar Choleraesuis CVCC 503
[19] = tested on: Staphylococcus aureus ATCC 29213
[20] = tested on: Lacticaseibacillus rhamnosus 1.0936
[21] = tested on: Lacticaseibacillus rhamnosus 1.9021
[22] = tested on: Pseudomonas aeruginosa ATCC 27853
Escherichia coli K88 = tested on: Escherichia coli K88
[23] = tested on: Staphylococcus aureus ATCC 43300
[24] = tested on: Staphylococcus epidermidis ATCC 12228
Escherichia coli J2210 = tested on: Escherichia coli J2210
[25] = tested on: Escherichia coli JW0368 ΔsbmA
[26] = tested on: Salmonella enterica subsp. enterica serovar Enteritidis MH91989
[27] = tested on: Escherichia coli JW2778 ΔygdD
Escherichia coli MC1041 = tested on: Escherichia coli MC1041
Escherichia coli = tested on: Escherichia coli
Escherichia coli JJ2489 = tested on: Escherichia coli JJ2489
[28] = tested on: Salmonella enterica subsp. enterica serovar Infantis
Escherichia coli JW0013 = tested on: Escherichia coli JW0013
Escherichia coli BW25113 = tested on: Escherichia coli BW25113
[29] = tested on: Salmonella enterica subsp. enterica serovar Newport
[30] = tested on: Salmonella enterica serovar Tennessee
[31] = tested on: Salmonella typhimurium SL1344
[32] = tested on: Candida tropicalis CGMCC 2.1975
Escherichia coli UB1005 = tested on: Escherichia coli UB1005
[33] = tested on: Candida parapsilosis CGMCC 2.3989
[34] = tested on: Salmonella enterica subsp. enterica serovar Typhimurium C77-31
[35] = tested on: Salmonella enterica subsp. enterica serovar Pullorum ATCC 7913
Escherichia coli K99 = tested on: Escherichia coli K99
Escherichia coli 078 = tested on: Escherichia coli 078
[36] = tested on: Candida albicans CGMCC 2.2086

`CC[C@H](C)[C@H](NC(=O)[C@H](CCC(N)=O)NC(=O)CN)C(=O)N[C@H](C(=O)N[C@@H](CC(N)=O)C(=O)N[C@@H](CC(C)C)C(=O)N[C@@H](CCCCN)C(=O)N[C@@H](C)C(=O)N[C@@H](CO)C(=O)N[C@@H](CC(C)C)C(=O)N[C@@H](CC(=O)O)C(=O)N[C@@H](CC(C)C)C(=O)N[C@@H](CC(C)C)C(N)=O)[C@@H](C)CC` [GQIINLKASLDLL] was tested, and the MIC [1] was ≥ 119 µM, the MIC [2] was ≥ 143 µM and the MIC [3] was > 119 µM.

For `CC[C@H](C)[C@H](NC(=O)[C@H](CCCCN)NC(=O)[C@H](CCCCN)NC(=O)[C@@H](NC(=O)[C@@H](NC(=O)[C@H](CCCN=C(N)N)NC(=O)[C@H](CCCCN)NC(=O)[C@H](CCC(=O)O)NC(=O)CNC(=O)[C@H](C)N)[C@@H](C)CC)[C@@H](C)CC)C(=O)N[C@@H](CC(=O)O)C(=O)N[C@@H](CCC(=O)O)C(=O)N[C@@H](C)C(=O)N[C@@H](Cc1ccccc1)C(=O)N[C@@H](CCC(N)=O)C(=O)O` [AGEKRIIKKIDEAFQ], the MIC [4] was ≥ 73.3 µM.

For `NCCCC[C@H](NC(=O)CNC(=O)[C@H](Cc1c[nH]c2ccccc12)NC(=O)[C@H](CCCCN)NC(=O)[C@H](CCCCN)NC(=O)CNC(=O)[C@H](Cc1c[nH]c2ccccc12)NC(=O)[C@H](CCCCN)NC(=O)[C@H](CCCCN)NC(=O)CNC(=O)[C@H](Cc1c[nH]c2ccccc12)NC(=O)[C@@H](N)CCCCN)C(N)=O` [KWGKKWGKKWGK], the MIC [5] was 8 µM (≈ 12.1 µg/mL), the MIC [6] was 4 µM (≈ 6.06 µg/mL) and the MIC [7] was 4 µM (≈ 6.06 µg/mL). For the same compound, the MIC [8] was 8 µM (≈ 12.1 µg/mL), the MIC [9] was 16 µM (≈ 24.3 µg/mL) and the MIC [10] was 64 µM (≈ 97 µg/mL).

With `CC[C@H](C)[C@H](NC(=O)CNC(=O)[C@H](CCCCN)NC(=O)[C@H](Cc1c[nH]c2ccccc12)NC(=O)[C@H](CC(N)=O)NC(=O)[C@H](C)N)C(=O)N[C@@H](C)C(=O)N[C@@H](C)C(=O)N[C@@H](CCSC)C(=O)N[C@@H](C)C(=O)N[C@@H](CCCCN)C(=O)N[C@@H](CCCCN)C(=O)N[C@@H](CC(C)C)C(=O)N[C@@H](CC(C)C)C(N)=O` [ANWKGIAAMAKKLL] the MIC (Escherichia coli INV-a) was ≥ 33 µM and the MIC [11] was 18 µM (≈ 27.3 µg/mL).

With `CC(C)C[C@H](NC(=O)CNC(=O)[C@H](Cc1c[nH]c2ccccc12)NC(=O)CNC(=O)[C@H](CC(C)C)NC(=O)[C@H](CCCCN)NC(=O)[C@@H](N)CCCCN)C(=O)N[C@@H](CCCCN)C(=O)N[C@@H](CCCCN)C(N)=O` [KKLGWGLKK] the MIC [12] was ≥ 128 µM, the MIC [13] was ≥ 128 µM and the MIC [14] was ≥ 128 µM. For the same compound, the MIC [15] was > 128 µM, the MIC [3] was > 128 µM and the MIC [16] was ≥ 128 µM. For the same compound, the MIC [17] was ≥ 128 µM, the MIC [6] was > 128 µM and the MIC [18] was ≥ 128 µM. The MIC [19] was > 128 µM, the MIC [20] was ≥ 128 µM and the MIC [21] was ≥ 128 µM. The MIC [22] was > 128 µM, the MIC (Escherichia coli K88) was ≥ 128 µM and the MIC [23] was > 128 µM. The MIC [24] was > 128 µM.

In the case of `CC(C)C[C@H](NC(=O)[C@H](CCCN=C(N)N)NC(=O)[C@@H]1CCCN1C(=O)[C@H](Cc1cnc[nH]1)NC(=O)[C@@H]1CCCN1C(=O)[C@@H]1CCCN1C(=O)[C@H](CCCN=C(N)N)NC(=O)[C@@H]1CCCN1C(=O)[C@H](CCC(N)=O)NC(=O)[C@@H]1CCCN1C(=O)[C@H](CCCCN)NC(=O)[C@H](Cc1ccc(O)cc1)NC(=O)[C@@H](NC(=O)[C@@H]1CCCN1C(=O)[C@H](CCCCN)NC(=O)[C@H](CC(N)=O)NC(=O)[C@H](CC(N)=O)NC(=O)CN)C(C)C)C(=O)O` [GNNKPVYKPQPRPPHPRL], the MIC (Escherichia coli J2210) is reported as 0.034 µM (≈ 0.0712 µg/mL), the MIC [25] is reported as 0.096 µM (≈ 0.201 µg/mL) and the MIC [26] is reported as 0.031 µM (≈ 0.065 µg/mL). For the same compound, the MIC [27] was 0.024 µM (≈ 0.0503 µg/mL), the MIC (Escherichia coli MC1041) was 0.024 µM (≈ 0.0503 µg/mL) and the MIC (Escherichia coli) was 0.048 µM (≈ 0.101 µg/mL). The MIC (Escherichia coli JJ2489) was 0.031 µM (≈ 0.065 µg/mL), the MIC [28] was 0.024 µM (≈ 0.0503 µg/mL) and the MIC (Escherichia coli JW0013) was 0.012 µM (≈ 0.0251 µg/mL). It also gave an MIC (Escherichia coli BW25113) of 0.017 µM (≈ 0.0356 µg/mL), an MIC [29] of 0.024 µM (≈ 0.0503 µg/mL) and an MIC [30] of 0.024 µM (≈ 0.0503 µg/mL). The MIC [31] was 0.034 µM (≈ 0.0712 µg/mL).

`CC[C@H](C)[C@H](NC(=O)[C@H](CCCN=C(N)N)NC(=O)[C@H](C)NC(=O)[C@H](C)N)C(=O)N[C@H](C(=O)N[C@@H](CC(C)C)C(=O)N[C@@H](CCCN=C(N)N)C(=O)N[C@H](C(=O)N[C@@H](CCCN=C(N)N)C(=O)N[C@@H](Cc1ccccc1)C(=O)N[C@@H](CCCN=C(N)N)C(N)=O)[C@@H](C)O)[C@@H](C)CC` [AARIILRTRFR] was tested, and the MIC [32] was ≥ 32 µM, the MIC (Escherichia coli UB1005) was 4 µM (≈ 5.49 µg/mL) and the MIC [33] was ≥ 64 µM. The MIC [34] was 16 µM (≈ 21.9 µg/mL), the MIC [15] was 16 µM (≈ 21.9 µg/mL) and the MIC [35] was 8 µM (≈ 11 µg/mL). For the same compound, the MIC (Escherichia coli K99) was 4 µM (≈ 5.49 µg/mL), the MIC (Escherichia coli 078) was 4 µM (≈ 5.49 µg/mL) and the MIC [22] was > 128 µM. For the same compound, the MIC (Escherichia coli K88) was 4 µM (≈ 5.49 µg/mL), the MIC [36] was ≥ 128 µM and the MIC [10] was 16 µM (≈ 21.9 µg/mL). The MIC [23] was 16 µM (≈ 21.9 µg/mL) and the MIC [24] was 16 µM (≈ 21.9 µg/mL).
